Results as given in PubChem BioAssay (NCI).
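Interpolation was linear, between the two tested concentrations surrounding the appropriate level; five concentrations were tested over 48 hours in 96-well plates. At the GI50, growth is halved. TGI: total growth inhibition.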

Legend:
Assay in all cases: NCI-60 cell line screen, 48 h
[1] = tested on: HCC-2998 colon
[2] = tested on: HCT-15 colon
[3] = tested on: HOP-62 NSCLC
[4] = tested on: K-562 leukemia
[5] = tested on: NCI-H23 lung
[6] = tested on: SF-268 CNS
[7] = tested on: SK-OV-3 ovarian
[8] = tested on: SNB-75 CNS
[9] = tested on: SW-620 colon
[10] = tested on: PC-3 prostate

SMILES: CC1=CC(O)C(O)C2(C)C1CC1OC(=O)C(O)C3C(C)C(O)C4(O)OCC13C42 (configuration not stated)
- TGI [1]: 126 µM
- TGI [2]: > 625 µM
- TGI [3]: 348 µM
- TGI [4]: > 394 µM
- TGI [5]: 250 µM
- TGI [6]: 444 µM
- TGI [7]: 359 µM
- TGI [8]: 33.3 µM
- TGI [9]: 224 µM

SMILES: c1ccc(CCN2CCCCCC2)nc1
- TGI [2]: > 100 µM
- TGI [3]: > 100 µM
- TGI [4]: > 100 µM
- TGI [5]: > 100 µM
- TGI [10]: > 100 µM
- TGI [6]: > 100 µM
- TGI [7]: > 100 µM
- TGI [9]: > 100 µM

SMILES: CS(=O)(=O)OCCN1CCC2(CC1)SSC1(CCN(CCOS(C)(=O)=O)CC1)S2
- TGI [2]: > 100 µM
- TGI [3]: > 100 µM
- TGI [4]: > 100 µM
- TGI [5]: > 100 µM
- TGI [10]: > 100 µM
- TGI [6]: 58.1 µM
- TGI [7]: > 100 µM
- TGI [8]: > 100 µM
- TGI [9]: > 100 µM

SMILES: COc1ccc(C2(c3ccc(OC)cc3)OC(=O)c3cccc4cccc2c34)cc1
- TGI [1]: 37.5 µM
- TGI [2]: > 100 µM
- TGI [3]: > 100 µM
- TGI [4]: > 100 µM
- TGI [5]: > 100 µM
- TGI [10]: 6.47 µM
- TGI [6]: > 100 µM
- TGI [7]: > 100 µM
- TGI [9]: > 100 µM

SMILES: CC(C)(C)N=C1CC(C)(C)c2ccccc2C(=Nc2ccccc2)S1
- TGI [1]: > 100 µM
- TGI [2]: > 100 µM
- TGI [3]: > 100 µM
- TGI [4]: > 100 µM
- TGI [5]: 98.6 µM
- TGI [6]: > 100 µM
- TGI [7]: > 100 µM
- TGI [8]: > 100 µM
- TGI [9]: > 100 µM

SMILES: OC(c1ccc(Cl)cc1)(c1ccc(Cl)cc1)C(O)(c1ccc(Cl)cc1)c1ccc(Cl)cc1
- GI50 [1]: 2.56 µM
- TGI [1]: > 100 µM
- GI50 [2]: 2.93 µM
- TGI [2]: > 100 µM
- GI50 [4]: 3.56 µM
- TGI [4]: > 100 µM
- GI50 [10]: 3.25 µM
- TGI [10]: > 100 µM
- GI50 [8]: 4.36 µM
- TGI [8]: > 100 µM
- GI50 [9]: 3.24 µM
- TGI [9]: > 100 µM

SMILES: COc1ccc(/C=C2\Cc3ccccc3C2=O)cc1OC
- TGI [1]: > 100 µM
- TGI [2]: > 100 µM
- TGI [3]: > 100 µM
- TGI [4]: > 100 µM
- TGI [5]: > 100 µM
- TGI [6]: > 100 µM
- TGI [7]: > 100 µM
- TGI [9]: > 100 µM

SMILES: CC(NC(=O)/C(=C/c1ccccc1O)NC(=O)c1ccccc1)C(=O)O (configuration not stated)
- TGI [1]: 76.2 µM
- TGI [2]: 80.4 µM
- TGI [4]: > 100 µM
- TGI [5]: > 100 µM
- TGI [6]: 32.9 µM
- TGI [7]: 50.2 µM
- TGI [8]: 31.1 µM
- TGI [9]: > 100 µM
